Reference: US20210238187A1, “AZIRIDINE CONTAINING EPOTHILONE ANALOGS, METHODS OF SYNTHESIS, METHODS OF TREATMENT, AND DRUG CONJUGATES” (WILLIAM MARSH RICE UNIVERSITY, priority 2017, published 2021)
Where two headings read alike, the source gives them in different places.

Key:
Tubulin = Tubulin assembly induction; assay type: biochemical
HEK 293T = test: Cytotoxicity assay (CellTiter-Glo), HEK 293T; assay type: cell-based; conditions: Homo sapiens, 72 h, read-out: Cancer cell lines IC50, HEK 293T
MES SA DX = test: Cytotoxicity assay (CellTiter-Glo), MES SA DX; assay type: cell-based, human; conditions: Homo sapiens, read-out: Cancer cell lines IC50, MES SA DX
MES SA = test: Cytotoxicity assay (CellTiter-Glo), MES SA; assay type: cell-based, human; conditions: MES-SA, read-out: Cancer cell lines IC50, MES SA
OVCAR-8 = test: Cytotoxicity (GI50) assay, OVCAR-8; assay type: cell-based, human
MCF-7 = test: Cytotoxicity (GI50) assay, MCF-7; assay type: cell-based, human
NCI/ADR-RES = test: Cytotoxicity (GI50) assay, NCI/ADR-RES; assay type: cell-based, human; conditions: Homo sapiens, NCI/ADR-RES, read-out: Cancer cell lines GI50, NCI/ADR-RES
SNB-75 = test: Cytotoxicity (GI50) assay, SNB-75; assay type: cell-based, human
MDA-MB-435 = test: Cytotoxicity (GI50) assay, MDA-MB-435; assay type: cell-based, human
[1] = Homo sapiens, OVCAR-8, read-out: Cancer cell lines GI50, OVCAR-8
[2] = Homo sapiens, MCF7, read-out: Cancer cell lines GI50, MCF-7
[3] = Homo sapiens, SNB-75, read-out: Cancer cell lines GI50, SNB-75
[4] = Homo sapiens, MDA-MB-435, read-out: Cancer cell lines GI50, MDA-MB-435

Structure (SMILES) | EC50 (Tubulin) [nM] | IC50 (HEK 293T) [nM] | IC50 (MES SA DX; MES-SA, 72 h) [nM] | IC50 (MES SA; Homo sapiens, 72 h) [nM] | GI50 (OVCAR-8; [1]) [nM] | GI50 (MCF-7; [2]) [nM] | GI50 (NCI/ADR-RES) [nM] | GI50 (SNB-75; [3]) [nM] | EC50 (Tubulin; […]) [nM] | GI50 (MDA-MB-435; [4]) [nM] | GI50 (SNB-75; SNB-75, human glioblastoma cell line, read-out: Cancer cell lines GI50, SNB-75) [nM] | IC50 (MES SA DX; MES SA cell line with marked multidrug resistance, 72 hours, CellTiter-Glo) [nM] | IC50 (MES SA; human uterine sarcoma cell line, 72 hours, CellTiter-Glo) [nM] | GI50 (OVCAR-8; OVCAR-8, human ovarian cancer cell line, read-out: Cancer cell lines GI50, OVCAR-8) [nM] | GI50 (MDA-MB-435; MDA-MB-435, human melanoma cell line, read-out: Cancer cell lines GI50, MDA-MB-435) [nM] | GI50 (MCF-7; MCF7, human breast cancer cell line, concentration required to decrease cell growth by 50%, read-out: Cancer cell lines GI50, MCF-7) [nM] | GI50 (NCI/ADR-RES; highly drug resistant human ovarian cancer cell line) [nM]
CC1=CCC(C(C)=Cc2csc(C)n2)OC(=O)CC(O)C(C)(C)C(=O)C(C)C(O)C(C)CCC1 (stereo not shown) [compound 4, epothilone D, reference compound] | 18000 | 3.55 | 9.7 | 6.84 | 13 | 14 | 17 | – | – | – | – | – | – | – | – | – | –
CSc1nc(/C=C(\C)[C@@H]2C[C@@H]3N(CCO)[C@]3(C)CCC[C@H](C)[C@H](O)[C@@H](C)C(=O)C(C)(C)[C@@H](O)CC(=O)O2)co1 (stereo partly drawn) [compound 17, (1S,3S,7S,10R,11S,12S,16R)-7,11-Dihydroxy-17-(2-hydroxyethyl)-8,8,10,12,16-pentamethyl-3-{(1E)-1-[2-(methylsulfanyl)-1,3-oxazol-4-yl]prop-1-en-2-yl}-4-oxa-17-azabicyclo[14.1.0]-heptadecane-5,9-dione] | – | 0.05 | 1.11 | 0.02 | 25 | 7.5 | – | 13 | 4000 ± 1000 | 3.5 | – | – | – | – | – | – | –
C#CCCN1[C@H]2C[C@@H](/C(C)=C/c3csc(SC)n3)OC(=O)C[C@H](O)C(C)(C)C(=O)[C@H](C)[C@@H](O)[C@@H](C)CCC[C@]21C (stereo partly drawn) [compound 39, (1S,3S,7S,10R,11S,12S,16R)-17-(But-3-yn-1-yl)-7,11-dihydroxy-8,8,10,12,16-pentamethyl-3-{(1E)-1-[2-(methylsulfanyl)-1,3-thiazol-4-yl]prop-1-en-2-yl}-4-oxa-17-azabicyclo[14.1.0]heptadecane-5,9-dione] | – | 0.09 | 0.45 | 0.23 | 18 | 30 | – | 31 | 3500 | 3.5 | – | – | – | – | – | – | –
C/C(=C\c1csc(C)n1)[C@@H]1C[C@@H]2N[C@@H]2CCC[C@H](C)[C@H](O)[C@@H](C)C(=O)C(C)(C)[C@@H](O)CC(=O)O1 [compound 8, 12,13-aziridinyl epothilone A, reference compound] | – | 0.95 | 16.9 | 1.14 | 5.5 | 2.5 | 38 | – | > 40000 | – | – | – | – | – | – | – | –
CSc1nc(/C=C(\C)[C@@H]2C[C@@H]3N(CCOC(C)=O)[C@]3(C)CCC[C@H](C)[C@H](O)[C@@H](C)C(=O)C(C)(C)[C@@H](O)CC(=O)O2)cs1 (stereo partly drawn) [compound 36, 2-[(1S,3S,7S,10R,11S,12S,16R)-7,11-Dihydroxy-8,8,10,12,16-pentamethyl-3-{(1E)-1-[2-(methylsulfanyl)-1,3-thiazol-4-yl]prop-1-en-2-yl}-5,9-dioxo-4-oxa-17-azabicyclo[14.1.0]-heptadec-17-yl]ethyl acetate] | – | 0.07 | 0.86 | 0.29 | 18 | 5.5 | – | 23 | 4000 | 3.5 | – | – | – | – | – | – | –
CSc1nc(/C=C(\C)[C@@H]2C[C@@H]3N(CCN)[C@]3(C)CCC[C@H](C)[C@H](O)[C@@H](C)C(=O)C(C)(C)[C@@H](O)CC(=O)O2)cs1 (stereo partly drawn) [compound 37, (1S,3S,7S,10R,11S,12S,16R)-17-(2-Aminoethyl)-7,11-dihydroxy-8,8,10,12,16-pentamethyl-3-{(1E)-1-[2-(methylsulfanyl)-1,3-thiazol-4-yl]prop-1-en-2-yl}-4-oxa-17-azabicyclo[14.1.0]heptadecane-5,9-dione] | – | – | – | – | – | – | – | – | 6100 | – | 23 | 12 | 0.108 | 63 | 15 | 14 | 70
C/C(=C\c1csc(C)n1)[C@@H]1C[C@H]2[C@@H](CCC[C@H](C)[C@H](O)[C@@H](C)C(=O)C(C)(C)[C@@H](O)CC(=O)O1)N2CCO (stereo partly drawn) [compound 9, (1S,3S,7S,10R,11S,12S,16R)-7,11-Dihydroxy-17-(2-hydroxyethyl)-8,8,10,12-tetramethyl-3-[(1E)-1-(2-methyl-1,3-thiazol-4-yl)prop-1-en-2-yl]-4-oxa-17-azabicyclo[14.1.0]heptadecane-5,9-dione, reference compound] | – | 0.67 | 15.7 | 8.01 | 3 | 2 | – | – | 1900 | – | – | – | – | – | – | – | –
